From patent EP4501942A1, “PEPTIDOMIMETICS WITH ANTIVIRAL ACTIVITY” (priority 2023, dated 2025)
Where two headings read alike, the source gives them in different places.

Legend:
SARS-CoV-2 M^pro protein = SARS-CoV-2 M^pro protein (Severe acute respiratory syndrome coronavirus 2, UniProt P0DTD1); experiment: biochemical; details: for IC50: isolated SARS-CoV-2 M^pro, three separate experiments in duplicate, read-out: IC50, mean±SD
SARS-CoV-2 = experiment: microbe, parasite or virus in culture; type: cell-based; details: Severe acute respiratory syndrome coronavirus 2, SARS-CoV-2, A549-ACE2 cells, MOI 0.005, 48 h; for EC50: read-out: EC50; for EC90: read-out: EC90
[1] = Cytotoxicity MTT assay in uninfected A549-ACE2 cells; type: cell-based; details: human
Method: To evaluate the cytotoxicity profile of the compounds MTT assays were performed in A549-ACE2 cells. Uninfected cells were incubated with a range of compound concentrations (from 100 to 1 µM) for forty-eight hours, time at which the MTT substrate [3-(4,5-dimethylthiazol-2-yl)-2,5-diphenyltetrazolium bromide] was added and the formation of formazan precipitates was evaluated two hours later, using a colorimetric readout. Vehicle-treated (DMSO) cells were used as reference (100 %).

[2] = test system: GFP-expressing recombinant vesicular stomatitis virus (VSV-GFP); experiment: microbe, parasite or virus in culture; type: cell-based; details: A549-ACE2, 16 h
in vitro [3] = details: human
in vitro [4] = experiment: in vitro

Structure (SMILES)	IC50 (SARS-CoV-2 M^pro protein) [nM]	EC50 (SARS-CoV-2) [nM]	EC90 (SARS-CoV-2) [nM]	CC50 at 48 h [1] [µM]	EC50 [2] [µM]	EC90 [2] [µM]	CC50 (in vitro [3]) [µM]	CC50 (in vitro [4]) [µM]	inhibition at 10 µM (SARS-CoV-2 M^pro protein; read-out: % of inhibition at 10 µM) [%]
CC(C)[C@H](NC(=O)OC(C)(C)C)C(=O)N1C[C@@H](C)[C@@]1(Cc1ccccc1)C(=O)N[C@H](C#N)C[C@@H]1CCNC1=O [Example 6]	70 ± 10	1000	3000	> 100	> 50	> 50	> 50	> 50	–
C[C@@H]1CN(C(=O)[C@@H](NC(=O)OC(C)(C)C)C(C)(C)C)[C@]1(Cc1ccccc1)C(=O)N[C@H](C#N)C[C@@H]1CCNC1=O [Example 14]	300 ± 30	1000	3000	> 100	> 50	> 50	> 50	> 50	–
CCCC[C@@H](C#N)NC(=O)[C@]1(CC(C)C)[C@H](C)CN1C(=O)[C@@H](NC(=O)NC(C)(C)C)C(C)(C)C [Example 25, ^tBuNHCO-L-Tbg-(αS,β'R)-Azl-NH-[(1S)-1-cyano]pentane]	–	–	–	–	> 50	> 50	> 50	> 50	0
C[C@@H]1CN(C(=O)[C@@H](NC(=O)OC(C)(C)C)C(C)(C)C)[C@]1(Cc1ccccc1)C(=O)N[C@H](C=O)C[C@@H]1CCNC1=O [Example 29, Boc-L-Tbg-(αS,β'R')-Azf-L-Ala(3S-2-oxopyrrolidin-3-yl)-H]	27 ± 6	1000	2000	> 100	> 50	> 50	> 50	> 50	–
CC(C)[C@H](NC(=O)OC(C)(C)C)C(=O)N1C[C@@H](C)[C@@]1(CC1CCCCC1)C(=O)N[C@H](C#N)C[C@@H]1CCNC1=O [Example 36]	190 ± 10	2000	4000	> 100	> 50	> 50	> 50	> 50	–
